Results on four compounds are retold here after patent publication US20110046381A1, “NOVEL 4-{3-[4-(3-{4-[AMINO (BUTOXYCARBONYLIMINO) METHYL] PHENOXY} PROPYL)-1-PIPERIDINYL] PROPOXY]-N'-(BUTOXYCARBONYL) BENZAMIDINE CRYSTALS” (Toyama Chemical Co., Ltd., priority 2007, published 2011).

For data set [1], the system named is Candida albicans TIMM1623. As to the kind of experiment: Mouse Candida infection model test, oral administration (Test Example 6). Format: in vivo. The note with it: immunosuppressed mice, i.v. infection about 3×10^4 CFU/mouse; 1 mg/kg orally once daily for 4 days; observed for 14 days; 5 mice/group. How it is done:
Candida albicans TIMM1623, which was obtained from overnight cultures grown on Sabouraud dextrose agar (SDA) plates at 35° C., was suspended in sterile physiological saline, then diluted to prepare a suspension of inoculum organism.
Transient immunosuppression in mice (four-week-old, 5 mice/group) was induced by intraperitoneal treatment with 200 mg/kg cyclophosphamide 4 days before the infection and with 100 mg/kg cyclophosphamide 1 day after the infection. Infection was induced by the intravenous inoculation of 0.2 mL of the cell suspension of Candida albicans TIMM1623 (about 3×10^4 CFU/mouse) via the lateral tail vein. The test compound was dissolved in 0.1 mol/L hydrochloric acid, diluted by sterilized water and orally administered at 1 mg/kg of mouse body weight. The therapy was started at 2 hours after infection and carried out once daily for 4 days. The equivalent amount of sterilized physiological saline was administered to the group to which no test compound was administered. The survival number of mice was observed and recorded for 14 days.

Data set [2] in a line: Surface potential after corona discharge (Test Example 2). Format: physicochemical. The conditions noted are these: 25° C., 50% RH; corona discharge −4 kV for 2 minutes. How it is done:
The following test was conducted in a thermo-hygrostat (25° C., 50% RH). The test materials were set in a sample plate (SUS304, the surface was ground by a buff400, the volume: about 6 mL, the depth: 3 mm, cylindrical, the upper aspect was opened), and was charged by corona discharge (the corona voltage: −4 kV) from an impressed voltage device for 2 minutes (the distance between the impressed voltage device and the sample plate: 30 mm). After charging, the surface potential of the test materials was measured (the distance between the sensor and the sample: 5 mm). Thermo-hygrostat: KCL-2000, EYELA CORPORATION Surface potential measurement device: SK-200, KEYENCE CORPORATION Impressed voltage device: SJ-G036, KEYENCE CORPORATION Data logger: AD-DIO Card Bus, Interface Corporation

A short description of data set [3]: Sticking test, scraper pressure of tablets (Test Example 3). Format: physicochemical. The conditions noted are these: tablets containing 200 mg, diameter 8.5 mm, loading pressure 10 kN. How it is done:
Tablets (flat-shaped, the diameter 8.5 mm) containing 200 mg of the test materials were prepared by using a tableting process analyzer (Tab Flex TAB-10, OKADA SEIKO CO., LTD.) (the loading pressure: 10 kN). Next, the scraper pressure was measured when the tablets were pushed out by a scraper.

Data set [4] can be described thus: Tapped density (Test Example 1). Type of data set: physicochemical. The conditions noted are these: sieved 18 mesh, tapped 180 times, W/V1. How it is done:
The test materials passed through a sieve (18 mesh) were filled into a measuring cylinder and the weight W(g) of the filled test materials was measured. Next, the measuring cylinder containing the test materials was mechanically tapped 180 times by a powder characteristic measuring device (a powder tester PT-E, Hosokawa Micron Corporation). After tapping, the volume V1 (mL) of the tapped test materials was measured. By the following formula, the tapped density (g/mL) was calculated. Tapped density (g/mL)=W/V1

Data set [5] can be described thus: Adhesion test to a metal cup (Test Example 4). Type of data set: physicochemical. The conditions noted are these: 5 g test material in SUS304 metal cup, weight adhering after turning over the cup. How it is done:
5 g of the test materials passed through a sieve (18 mesh) are filled in a metal cup (SUS304, the internal diameter: 65 mm, the volume: about 200 mL), and then the test materials were removed by turning over the cup. The weight of the test materials adhering on the surface of the cup was measured.

A short description of data set [6]: Compression moldability test, tablet hardness (Test Example 5). The conditions noted are these: 200 mg tablets. Type of data set: physicochemical. How it is done: Tablets (flat-shaped, the diameter: 8.5 mm) containing 200 mg of the test materials were prepared by using a tableting process analyzer (Tab Flex TAB-10, OKADA SEIKO CO., LTD.) (The loading pressure: 5 and 10 kN). Next, the breaking strength of the tablets was measured by a tablet hardness tester (PC-30, OKADA SEIKO CO., LTD.).

For the compound `CCCCOC(=O)N=C(N)c1ccc(OCCCC2CCN(CCCOc3ccc(C(N)=NC(=O)OCCCC)cc3)CC2)cc1` [Type IV crystal, 4-{3-[4-(3-{4-[amino(butoxycarbonylimino)methyl]phenoxy}propyl)-1-piperidinyl]propoxy}-N′-(butoxycarbonyl)benzamidine], the mice survived in data set [1] amounted to 80%. In addition, in data set [2], the Surface potential was −1.3 kV. The compound also gave a Scraper pressure in data set [3] of 2.9 kN. The compound further had a Tapped density in data set [4] of 0.47 g/mL. The same compound displayed an Adhering amount in data set [5] of 40 mg.
Turning to `CCCCOC(=O)N=C(N)c1ccc(OCCCC2CCN(CCCOc3ccc(C(N)=NC(=O)OCCCC)cc3)CC2)cc1` [Type I crystal, 4-{3-[4-(3-{4-[amino(butoxycarbonylimino)methyl]phenoxy}propyl)-1-piperidinyl]propoxy}-N′-(butoxycarbonyl)benzamidine], the Hardness turned out to be 56 N in data set [6] (Loading pressure 5 kN) and 57 N in data set [6] (Loading pressure 10 kN). The compound further gave a mice survived in data set [1] of 80%. Further, in data set [2], the Surface potential is reported as −2.3 kV. In data set [3], this compound displayed a Scraper pressure of 7.2 kN. Moreover, the Tapped density in data set [4] was 0.22 g/mL. The compound further showed an Adhering amount in data set [5] of 70 mg.
As to `CCCCOC(=O)N=C(N)c1ccc(OCCCC2CCN(CCCOc3ccc(C(N)=NC(=O)OCCCC)cc3)CC2)cc1` [Type II crystal, 4-{3-[4-(3-{4-[amino(butoxycarbonylimino)methyl]phenoxy}propyl)-1-piperidinyl]propoxy}-N′-(butoxycarbonyl)benzamidine], the results for the Hardness in data set [6] (Loading pressure 5 kN) and in data set [6] (Loading pressure 10 kN) were 63 N and 94 N, respectively. For the same compound, the mice survived in data set [1] amounted to 80%. For the same compound, the Scraper pressure in data set [3] worked out at 2.9 kN. Moreover, the Tapped density in data set [4] turned out to be 0.40 g/mL. Moreover, the Adhering amount in data set [5] is recorded as 17 mg.
`CCCCOC(=O)N=C(N)c1ccc(OCCCC2CCN(CCCOc3ccc(C(N)=NC(=O)OCCCC)cc3)CC2)cc1` [Type III crystal, 4-{3-[4-(3-{4-[amino(butoxycarbonylimino)methyl]phenoxy}propyl)-1-piperidinyl]propoxy}-N′-(butoxycarbonyl)benzamidine]: the Hardness in data set [6] (Loading pressure 5 kN) is reported as 66 N; in data set [6] (Loading pressure 10 kN) it was 95 N. The compound further had a mice survived in data set [1] of 80%. In addition, in data set [2], the Surface potential is given as −1.9 kV. The compound further had a Scraper pressure in data set [3] of 1.9 kN. The Tapped density in data set [4] came out at 0.45 g/mL. For the same compound, in data set [5], the Adhering amount is 22 mg.
